Laboratory results published in patent publication US5741798A, “2-benzyl-4-sulfonyl-4H-isoquinolin-1,3-diones and their use as antiinflammatory agents” (priority 1997, dated 1998).

Experiments:
[1] = biological target: Human cyclooxygenase 1 (COX-1) (Homo sapiens, UniProt P23219); test: COX-1 inhibition, microsomal assay; settings: 20 min, read-out: % Inhibition of COX Enzymes in Microsomal Assays, COX-1
Experimental: (§1) Human cyclooxygenase 1 and 2 are expressed in a baculovirus expression system using High 5 insect cells. Microsomal fractions prepared from the cells are stored at -80° C. The assays are performed at room temperature in phosphate buffered saline. After incubating the COX-1 or COX-2 microsomes with hematin (2 μM), phenol (0.5 mM) and reduced glutathione (1 mM) for 5 minutes, inhibitor or DMSO vehicle is added and allowed to incubate for 20 minutes. Arachidonic acid (2 μM) is added and after 20 minutes the reaction is stopped by the addition of HCl (0.1 N HCl final concentration).
(§2) The inhibitory activities against COX-1 and COX-2 of the compounds described in the above Synthetic Examples were determined using the two in vitro assays described above.

[2] = biological target: T1, human recombinant COX-1 (Homo sapiens, UniProt P23219); test: COX-1 inhibition, COS cell assay; assay type: cell-based
T1 construct: expressed in transfected cells; host or cells: Cos-A2 cells, stably transfected
T1 sequence (P23219 24-599): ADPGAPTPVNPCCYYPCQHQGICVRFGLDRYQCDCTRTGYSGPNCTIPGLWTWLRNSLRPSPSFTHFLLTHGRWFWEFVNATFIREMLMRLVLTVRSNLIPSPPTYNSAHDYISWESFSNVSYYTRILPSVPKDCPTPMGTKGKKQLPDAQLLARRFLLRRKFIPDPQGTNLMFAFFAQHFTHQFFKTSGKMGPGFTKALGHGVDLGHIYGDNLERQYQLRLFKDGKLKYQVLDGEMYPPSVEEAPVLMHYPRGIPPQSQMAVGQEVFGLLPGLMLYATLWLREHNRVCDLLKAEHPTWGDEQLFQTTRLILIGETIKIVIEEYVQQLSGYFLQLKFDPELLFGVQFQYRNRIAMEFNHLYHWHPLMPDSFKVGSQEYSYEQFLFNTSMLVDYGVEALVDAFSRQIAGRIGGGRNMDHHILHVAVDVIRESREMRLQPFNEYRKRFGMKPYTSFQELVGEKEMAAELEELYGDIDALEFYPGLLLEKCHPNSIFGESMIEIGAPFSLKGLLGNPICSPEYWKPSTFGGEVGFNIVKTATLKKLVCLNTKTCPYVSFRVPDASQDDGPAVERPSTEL
Experimental: (§3) Cos-A2 cells stably transfected with human recombinant COX-1 or COX-2 are cultured in 96 well tissue culture plates with Dulbecco's Modified Eagle Medium supplemented with 10% fetal bovine serum, glutamine (2 mM), penicillin (50 U/mL), streptomycin ([…]) and geneticin (400 μg/mL). Media is removed from confluent monolayers and the cells are washed twice with Hank's buffered saline solution. Fresh HBSS is added, with or without inhibitor, and the cells are incubated for 30 minutes at 37° C. Arachidonic acid (30 μM) is then added and the cells are incubated for an additional one hour at 37° C. Individual experiments represent a mean of triplicate wells for control and inhibitor doses. Supernatents are removed and stored at -80° C. until assayed for PGE2 by EIA (Amersham).
as §2

[3] = system: Carrageenan-induced paw edema; test: Carrageenan-Induced Paw Edema in Rats; assay type: in vivo, rat; settings: oral, 30 mg/kg; *p < 0.05
Experimental: The antiinflammatory activities of two compounds in accordance with the invention (those of Examples 1 and 10) were determined in vivo and compared to those of the known antiinflammatory agents indomethacin and meloxicam, using the Carrageenan-Induced Paw Edema in Rats protocol described by C. A Winter et al. J. Pharmacol. Exp. Ther. 1963, 141, 369. Test compounds were administered orally.

[4] = biological target: T2, Human cyclooxygenase 2 (COX-2) (Homo sapiens, UniProt P35354); test: COX-2 inhibition, microsomal assay; settings: 20 min, read-out: % Inhibition of COX Enzymes in Microsomal Assays, COX-2
T2 sequence (P35354 18-604): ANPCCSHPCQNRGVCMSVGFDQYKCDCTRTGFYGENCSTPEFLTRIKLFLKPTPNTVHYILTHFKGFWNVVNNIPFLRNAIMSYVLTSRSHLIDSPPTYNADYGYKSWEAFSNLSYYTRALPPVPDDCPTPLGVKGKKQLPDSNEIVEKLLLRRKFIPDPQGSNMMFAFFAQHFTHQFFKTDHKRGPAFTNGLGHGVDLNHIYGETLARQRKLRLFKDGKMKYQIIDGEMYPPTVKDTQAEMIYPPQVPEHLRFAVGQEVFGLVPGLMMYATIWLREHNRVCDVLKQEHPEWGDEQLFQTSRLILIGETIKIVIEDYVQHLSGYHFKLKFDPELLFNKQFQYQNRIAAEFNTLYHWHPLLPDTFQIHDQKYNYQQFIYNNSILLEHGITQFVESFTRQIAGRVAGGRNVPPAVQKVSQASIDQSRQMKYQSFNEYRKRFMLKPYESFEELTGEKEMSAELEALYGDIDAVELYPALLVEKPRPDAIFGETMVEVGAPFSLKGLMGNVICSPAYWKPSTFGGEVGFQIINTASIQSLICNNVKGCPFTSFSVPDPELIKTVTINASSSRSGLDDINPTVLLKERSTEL
Experimental: as §1, §2

[5] = biological target: T3, human recombinant COX-2 (Homo sapiens, UniProt P35354); test: COX-2 inhibition, COS cell assay; assay type: cell-based; settings: COS cells, COX-2; read-out: Inhibition of COX Enzymes in COS Cell Assays, COX-2 IC50
T3 construct: expressed in transfected cells; host or cells: Cos-A2 cells, stably transfected
T3 sequence (P35354 18-604): T2 sequence (P35354 18-604)
Experimental: as §3, §2

[6] = system: COX-2; settings: in words, background; cited from earlier work
[7] = COS, read-out: Inhibition of COX Enzymes in COS Cell Assays, COX-1 % inhibition

Chain of Human cyclooxygenase 1 (COX-1) (P23219 24-599): as the sequence (P23219 24-599) above

| SMILES | inhibition at 0.1 µg/mL [1] [%] | inhibition at 1 µg/mL [1] [%] | inhibition at 10 µg/mL [1] [%] | IC50 ([2]; COS cells, COX-1, read-out: Inhibition of COX Enzymes in COS Cell Assays, COX-1 IC50) [nM] | Effect of Compounds in Carrageenen Paw Edema in Rats, % Inhibition [3] [%] | inhibition at 0.1 µg/mL [4] [%] | inhibition at 1 µg/mL [4] [%] | inhibition at 10 µg/mL [4] [%] | IC50 [5] [nM] | inhibition at 0.1 µM [2, 7] [%] | inhibition at 1 µM [2, 7] [%] | inhibition at 10 µM [2, 7] [%] | selective inhibition of the COX-2 isoform [6] |
| --- | --- | --- | --- | --- | --- | --- | --- | --- | --- | --- | --- | --- | --- |
| CC(C)S(=O)(=O)C1C(=O)N(Cc2ccccc2)C(=O)c2ccc(Cl)cc21 (stereo not drawn) [Example 1, 2-Benzyl-6-chloro-4-(1-methylethyl)sulfonyl-4H-isoquinolin-1,3-dione] | 10 | 34 | 57 | 1400 | 42.5 |  |  |  |  |  |  |  |  |
| CC(C)S(=O)(=O)C1C(=O)N(Cc2ccc(F)c(F)c2)C(=O)c2ccc(Cl)cc21 (stereo not drawn) [Example 10] | 13 | 40 | 96 |  | 38.6 | -3 | 100 | 100 | 100 | 20 | 55 | 88 |  |
| Cc1cnc(NC(=O)C2=C(O)c3ccccc3S(=O)(=O)N2C)s1 [Meloxicam, reference compound] |  |  |  |  | 56 |  |  |  |  |  |  |  | more or less selectively inhibit the COX-2 isoform |
